{"source": "patent US20100041089A1", "about": "“IMPROVED METHOD FOR DETECTING CHEMICAL […]” (priority 2006, published 2010)", "test_system": "yeast genes (expressed mRNA)", "assay": "DNA chip measurement of expressed mRNA of yeast genes after culture with a toxic chemical substance", "assay_type": "cell-based, Saccharomyces cerevisiae S288C", "settings": "for level of expressed mRNA in the presence of chemical substance / level in the absence of chemical substance: cultured two hours with the chemical substance; for The level of expressed mRNA in the presence of chemical substance/The level of expressed mRNA in the absence of chemical substance: cultured two hours with substance", "summary_of_the_method": "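Each expression value is the mRNA level in chemical-treated yeast divided by that in untreated yeast, from Cy3/Cy5 fluorescence on a whole-genome chip. Log-phase S288C cells in YPD at 25° C had received a sublethal, growth-inhibiting dose for two hours. Intensity denotes control expression relative to the all-gene mean.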"}
{"smiles": "[Cl][Pb][Cl]", "note": "[(4), PbCl2]", "values": [{"measurement": "The level of expressed mRNA in the presence of chemical substance/The level of expressed mRNA in the absence of chemical substance, yeast gene YBR036C", "setting": "gene YBR036C, Metabolism protein genes, DNA chip fluorescence ratio", "result": 1.2}, {"measurement": "The level of expressed mRNA in the presence of chemical substance/The level of expressed mRNA in the absence of chemical substance, yeast gene YBR298C", "setting": "gene YBR298C, Metabolism protein genes, DNA chip fluorescence ratio", "result": 2.3}, {"measurement": "The level of expressed mRNA in the presence of chemical substance/The level of expressed mRNA in the absence of chemical substance, yeast gene YDL067C", "setting": "gene YDL067C (mitochondria-located protein gene), yeast cultured two hours with chemical substance, DNA chip fluorescence ratio to control", "result": 1.3}, {"measurement": "The level of expressed mRNA in the presence of chemical substance/The level of expressed mRNA in the absence of chemical substance, yeast gene YDL078C", "setting": "gene YDL078C, Metabolism protein genes, DNA chip fluorescence ratio", "result": 0.8}, {"measurement": "The level of expressed mRNA in the presence of chemical substance/The level of expressed mRNA in the absence of chemical substance, yeast gene YDL215C", "setting": "gene YDL215C, Metabolism protein genes, DNA chip fluorescence ratio", "result": 1.6}, {"measurement": "The level of expressed mRNA in the presence of chemical substance/The level of expressed mRNA in the absence of chemical substance, yeast gene YDR079W", "setting": "gene YDR079W (mitochondria-located protein gene), yeast cultured two hours with chemical substance, DNA chip fluorescence ratio to control", "result": 1.1}, {"measurement": "The level of expressed mRNA in the presence of chemical substance/The level of expressed mRNA in the absence of chemical substance, yeast gene YDR297W", "setting": "gene YDR297W, Metabolism protein genes, DNA chip fluorescence ratio", "result": 1.1}, {"measurement": "The level of expressed mRNA in the presence of chemical substance/The level of expressed mRNA in the absence of chemical substance, yeast gene YDR387C", "setting": "gene YDR387C, Metabolism protein genes, DNA chip fluorescence ratio", "result": 2.2}, {"measurement": "The level of expressed mRNA in the presence of chemical substance/The level of expressed mRNA in the absence of chemical substance, yeast gene YGL035C", "setting": "gene YGL035C, Metabolism protein genes, DNA chip fluorescence ratio", "result": 1.4}, {"measurement": "The level of expressed mRNA in the presence of chemical substance/The level of expressed mRNA in the absence of chemical substance, yeast gene YGR062C", "setting": "gene YGR062C (mitochondria-located protein gene), yeast cultured two hours with chemical substance, DNA chip fluorescence ratio to control", "result": 1.4}, {"measurement": "The level of expressed mRNA in the presence of chemical substance/The level of expressed mRNA in the absence of chemical substance, yeast gene YGR287C", "setting": "gene YGR287C, Metabolism protein genes, DNA chip fluorescence ratio", "result": 1.5}, {"measurement": "The level of expressed mRNA in the presence of chemical substance/The level of expressed mRNA in the absence of chemical substance, yeast gene YJL070C", "setting": "gene YJL070C, Metabolism protein genes, DNA chip fluorescence ratio", "result": 1.2}, {"measurement": "The level of expressed mRNA in the presence of chemical substance/The level of expressed mRNA in the absence of chemical substance, yeast gene YJL096W", "setting": "gene YJL096W (mitochondria-located protein gene), yeast cultured two hours with chemical substance, DNA chip fluorescence ratio to control", "result": 1.3}, {"measurement": "The level of expressed mRNA in the presence of chemical substance/The level of expressed mRNA in the absence of chemical substance, yeast gene YJL180C", "setting": "gene YJL180C (mitochondria-located protein gene), yeast cultured two hours with chemical substance, DNA chip fluorescence ratio to control", "result": 1.3}, {"measurement": "The level of expressed mRNA in the presence of chemical substance/The level of expressed mRNA in the absence of chemical substance, yeast gene YKR009C", "setting": "gene YKR009C, Metabolism protein genes, DNA chip fluorescence ratio", "result": 0.9}, {"measurement": "The level of expressed mRNA in the presence of chemical substance/The level of expressed mRNA in the absence of chemical substance, yeast gene YLR295C", "setting": "gene YLR295C (mitochondria-located protein gene), yeast cultured two hours with chemical substance, DNA chip fluorescence ratio to control", "result": 1.7}, {"measurement": "The level of expressed mRNA in the presence of chemical substance/The level of expressed mRNA in the absence of chemical substance, yeast gene YLR351C", "setting": "gene YLR351C, Metabolism protein genes, DNA chip fluorescence ratio", "result": 1.5}, {"measurement": "The level of expressed mRNA in the presence of chemical substance/The level of expressed mRNA in the absence of chemical substance, yeast gene YLR375W", "setting": "gene YLR375W, Metabolism protein genes, DNA chip fluorescence ratio", "result": 0.9}, {"measurement": "The level of expressed mRNA in the presence of chemical substance/The level of expressed mRNA in the absence of chemical substance, yeast gene YMR023C", "setting": "gene YMR023C (mitochondria-located protein gene), yeast cultured two hours with chemical substance, DNA chip fluorescence ratio to control", "result": 1.9}, {"measurement": "The level of expressed mRNA in the presence of chemical substance/The level of expressed mRNA in the absence of chemical substance, yeast gene YMR267W", "setting": "gene YMR267W (mitochondria-located protein gene), yeast cultured two hours with chemical substance, DNA chip fluorescence ratio to control", "result": 0.9}, {"measurement": "The level of expressed mRNA in the presence of chemical substance/The level of expressed mRNA in the absence of chemical substance, yeast gene YMR267W", "setting": "gene YMR267W, Metabolism protein genes, DNA chip fluorescence ratio", "result": 0.9}, {"measurement": "The level of expressed mRNA in the presence of chemical substance/The level of expressed mRNA in the absence of chemical substance, yeast gene YMR278W", "setting": "gene YMR278W, Metabolism protein genes, DNA chip fluorescence ratio", "result": 1.0}, {"measurement": "The level of expressed mRNA in the presence of chemical substance/The level of expressed mRNA in the absence of chemical substance, yeast gene YMR293C", "setting": "gene YMR293C, Metabolism protein genes, DNA chip fluorescence ratio", "result": 2.2}, {"measurement": "The level of expressed mRNA in the presence of chemical substance/The level of expressed mRNA in the absence of chemical substance, yeast gene YNL073W", "setting": "gene YNL073W (mitochondria-located protein gene), yeast cultured two hours with chemical substance, DNA chip fluorescence ratio to control", "result": 1.7}, {"measurement": "The level of expressed mRNA in the presence of chemical substance/The level of expressed mRNA in the absence of chemical substance, yeast gene YNR072W", "setting": "gene YNR072W, Metabolism protein genes, DNA chip fluorescence ratio", "result": 0.7}, {"measurement": "The level of expressed mRNA in the presence of chemical substance/The level of expressed mRNA in the absence of chemical substance, yeast gene YOL096C", "setting": "gene YOL096C, Metabolism protein genes, DNA chip fluorescence ratio", "result": 1.6}, {"measurement": "The level of expressed mRNA in the presence of chemical substance/The level of expressed mRNA in the absence of chemical substance, yeast gene YOR180C", "setting": "gene YOR180C, Metabolism protein genes, DNA chip fluorescence ratio", "result": 1.0}, {"measurement": "The level of expressed mRNA in the presence of chemical substance/The level of expressed mRNA in the absence of chemical substance, yeast gene YOR316C", "setting": "gene YOR316C (mitochondria-located protein gene), yeast cultured two hours with chemical substance, DNA chip fluorescence ratio to control", "result": 1.5}, {"measurement": "The level of expressed mRNA in the presence of chemical substance/The level of expressed mRNA in the absence of chemical substance, yeast gene YOR363C", "setting": "gene YOR363C, Metabolism protein genes, DNA chip fluorescence ratio", "result": 1.3}, {"measurement": "The level of expressed mRNA in the presence of chemical substance/The level of expressed mRNA in the absence of chemical substance, yeast gene YPL040C", "setting": "gene YPL040C (mitochondria-located protein gene), yeast cultured two hours with chemical substance, DNA chip fluorescence ratio to control", "result": 1.7}, {"measurement": "The level of expressed mRNA in the presence of chemical substance/The level of expressed mRNA in the absence of chemical substance, yeast gene YPL134C", "setting": "gene YPL134C (mitochondria-located protein gene), yeast cultured two hours with chemical substance, DNA chip fluorescence ratio to control", "result": 1.6}, {"measurement": "The level of expressed mRNA in the presence of chemical substance/The level of expressed mRNA in the absence of chemical substance, yeast gene YPR184W", "setting": "gene YPR184W, Metabolism protein genes, DNA chip fluorescence ratio", "result": 2.2}, {"measurement": "level of expressed mRNA in the presence of chemical substance / level in the absence of chemical substance", "setting": "yeast gene YAL018C", "result": 11.3}, {"measurement": "The level of expressed mRNA in the presence of chemical substance/The level of expressed mRNA in the absence of chemical substance", "setting": "yeast gene YAL053W", "result": 2.1}, {"measurement": "level of expressed mRNA in the presence of chemical substance / level in the absence of chemical substance", "setting": "yeast gene YAR047C", "result": 0.7}, {"measurement": "level of expressed mRNA in the presence of chemical substance / level in the absence of chemical substance", "setting": "yeast gene YAR064W", "result": 2.8}, {"measurement": "level of expressed mRNA in the presence of chemical substance / level in the absence of chemical substance", "setting": "yeast gene YBL044W", "result": 0.8}, {"measurement": "The level of expressed mRNA in the presence of chemical substance/The level of expressed mRNA in the absence of chemical substance", "setting": "yeast gene YBL048W", "result": 2.8}, {"measurement": "The level of expressed mRNA in the presence of chemical substance/The level of expressed mRNA in the absence of chemical substance", "setting": "yeast gene YBL107C", "result": 1.5}, {"measurement": "level of expressed mRNA in the presence of chemical substance / level in the absence of chemical substance", "setting": "yeast gene YBR012C", "result": 0.8}, {"measurement": "level of expressed mRNA in the presence of chemical substance / level in the absence of chemical substance", "setting": "yeast gene YBR066C", "result": 1.6}, {"measurement": "level of expressed mRNA in the presence of chemical substance / level in the absence of chemical substance", "setting": "yeast gene YBR124W", "result": 0.4}, {"measurement": "level of expressed mRNA in the presence of chemical substance / level in the absence of chemical substance", "setting": "yeast gene YBR162C", "result": 0.8}, {"measurement": "level of expressed mRNA in the presence of chemical substance / level in the absence of chemical substance", "setting": "yeast gene YBR287W", "result": 2.4}, {"measurement": "level of expressed mRNA in the presence of chemical substance / level in the absence of chemical substance", "setting": "yeast gene YCL056C", "result": 1.0}, {"measurement": "level of expressed mRNA in the presence of chemical substance / level in the absence of chemical substance", "setting": "yeast gene YCR007C", "result": 2.9}, {"measurement": "level of expressed mRNA in the presence of chemical substance / level in the absence of chemical substance", "setting": "yeast gene YDL046W", "result": 1.3}, {"measurement": "The level of expressed mRNA in the presence of chemical substance/The level of expressed mRNA in the absence of chemical substance", "setting": "yeast gene YDL072C", "result": 2.1}, {"measurement": "The level of expressed mRNA in the presence of chemical substance/The level of expressed mRNA in the absence of chemical substance", "setting": "yeast gene YDL204W", "result": 3.4}, {"measurement": "The level of expressed mRNA in the presence of chemical substance/The level of expressed mRNA in the absence of chemical substance", "setting": "yeast gene YDL222C", "result": 3.9}, {"measurement": "level of expressed mRNA in the presence of chemical substance / level in the absence of chemical substance", "setting": "yeast gene YDR090C", "result": 1.2}, {"measurement": "level of expressed mRNA in the presence of chemical substance / level in the absence of chemical substance", "setting": "yeast gene YDR128W", "result": 0.9}]}
